Laboratory results as given in patent US12357604B2, “Topical formulations of cannabinoids and use thereof in the treatment of pain” (INMED PHARMACEUTICALS INC., priority 2017, dated 2025).
Entries after “also recorded” stand apart in the source; their conditions may differ.

Legend:
[1] = test system: masseter muscle mechanoreceptors; experiment: In vivo electrophysiology: mechanical threshold of mechanoreceptors; set-up: species or system Sprague-Dawley rats; details: for MT of masseter muscle mechanoreceptors on co-administration of THC with CB1 or CB2 antagonist: THC 1 mg/ml with AM251 or AM630 (1:0.5 and 1:1 mg/ml), intramuscular; for MT of masseter muscle mechanoreceptors: anesthetized rats, MT at 10, 30, 60, 120 min, 6 mechanoreceptors/group
Description: In vivo electrophysiology recordings of single ganglion neurons that innervate the craniofacial muscles were performed to investigate the mechanism of action of peripherally injected cannabinoids. Rats (n=6/group) from the behavioral experiments were used for subsequent in vivo electrophysiological experiments. Recordings were performed at least 7 days after the behavioral experiments and experiments were conducted on the PBS-injected masseter muscles (right side) of the rats to minimize potential residual effects of the previous cannabinoid treatments.
Rats were anesthetized with isoflurane (2-2.5% in oxygen 97-98%; AErrane; Baxter) and surgically prepared for electrophysiological recording. Heart rate, blood pressure and body temperature were monitored and a trachea tube was inserted for ventilation throughout the experiment. The hair of the face was shaved and the animal's head was positioned in a stereotaxic frame.
A parylene-coated tungsten microelectrode (0.10″, 2 MΩ, A-M Systems Inc.) was lowered into the trigeminal ganglion through the brain via a small trephination in the skull. An incision was made over the neck to expose the brain stem, and the dura was removed to allow access for a stimulating electrode to contact the caudal brain stem. Mechanoreceptors innervating craniofacial muscles (masseter and temporalis) were identified by mechanical probing using a fine-tipped cotton swab. Antidromic collisions were performed to confirm projection of the muscle fiber to the caudal brain stem (16, 30).
A stimulating electrode (parylene-coated tungsten microelectrode, 0.10″, 2 MΩ, A-M Systems Inc.) was lowered into the ipsilateral caudal brainstem and a constant-current electrical stimulus (100 μs biphasic pulse, 10-90 μA, 0.5 Hz) was applied to evoke antidromic action potentials. Orthodromic action potentials were evoked by mechanical stimulation of the tissue. […] The straight line distance between the stimulating and recording electrodes was divided by the latency of the antidromic action potential to estimate conduction velocity. MT was assessed with an electronic von Frey hair (IITC Life Science) by applying mechanical stimuli at 1 min intervals for 10 min to obtain baseline threshold. After baseline measurement, treatment was administered and MT was reassessed at 10, 30, 60, and 120 minutes thereafter. At the end of the experiments, animals were euthanized with pentobarbital (Nembutal 100 mg/kg, Abbott Laboratories, Chicago, IL).
(§1) For the immunohistochemistry experiment, the frequency of expression of CB1, CB2 and TRPV1, respectively, in trigeminal ganglion neurons between NGF and vehicle-injected sides was analyzed with a paired Student's t-test. For the behavioral and electrophysiological experiments, MT from NGF and vehicle-injected sides was analyzed with a two-way repeated measures analysis of variance (ANOVA) with time and treatment as factors. Relative mechanical activation threshold (Rel MT) was calculated as 100×Post-treatment MT/Baseline MT. Post hoc Holm Sidak's multiple comparison tests were used to compare post injection mechanical thresholds between treatment groups at each time point. One-way repeated measures ANOVA on ranks was used to analyze test scores in the inverted screen tests. A probability level of 0.05 was considered significant for all tests. Error bars represented standard error of the mean.

[2] = test system: NGF-induced sensitization in female rat masseter muscle; experiment: Behavioral mechanical threshold (electronic von Frey) of NGF-sensitized masseter muscle; assay type: in vivo, Sprague-Dawley rats; details: for Effect on NGF-induced mechanical sensitization (masseter muscle mechanical threshold, MT): intramuscular injection 10 μl, into NGF-injected masseter 3 days after NGF, MT at 10, 30, 60, 120 min, n=6/group; for MT of contralateral masseter muscles: after intramuscular cannabinoid injection into the NGF-injected side (THC 1 mg/ml, CBD 5 mg/ml, CBN 1 mg/ml)
Excerpt: Female (259-350 g, n=55) Sprague-Dawley rats were used for all experiments. Animals were housed in groups of two with a 12-h light/dark cycle. Food and water were given ad libitum. All animal procedures were reviewed and approved by the University of British Columbia Animal Care Committee.
Appropriate volumes of each solution were evaporated under nitrogen gas, and subsequently re-solubilized with 4% Tween 80 in isotonic saline to final concentrations used for injection.
Three days before behavioral experiments, rats received an injection of NGF (25 μg/ml, 10 μl, Sigma, St. Louis, MO) or vehicle (phosphate buffered saline, PBS, 10 μl) into the left and right masseter muscles, respectively, under brief isoflurane anesthesia. […] This is accompanied by an increase in NMDA receptor expression in peripheral trigeminal ganglion neurons with a peak at three days after injection (15). […] The masseter muscle region was shaved prior to injection and the injection sites were marked with a permanent marker for subsequent identification. The concentration of NGF was selected based on the concentration used in previous human experimental pain studies and experiments in rats (15, 24, 25, 26, 27). The investigator was blinded to the identity of the treatment groups until after all data was collected.
MT was assessed with a rigid electronic von Frey hair (IITC Life Science, Woodland Hills, CA). Before NGF injection, rats were habituated to restraint in a towel. […] The mechanical test stimulus was applied at 1 min intervals for 5 min and the average was calculated for further analysis. MT was measured daily for 5 days prior to the start of the experiment to determine that measurements were stable. MT readings recorded prior to NGF injection were used as naïve baseline. […] On the test day, a post-NGF injection baseline (NGF baseline) was recorded before injection of cannabinoid treatment groups. After treatment injections, MT was measured at 10, 30, 60, and 120 min after injection.
as §1

[3] = test system: impaired motor function in rats; experiment: Inverted screen test; assay type: in vivo, Sprague-Dawley rats; details: after intramuscular injection; for Impairment of motor functions in the inverted screen tests: tested at 10, 30, 60 and 120 min, n=4/group; for Inverted screen test median score: score 0 climbed to top, 1 held on upside down, 2 fell
Description: A modified version of the inverted screen test was performed to evaluate impaired motor function in rats (28, 29). Rats (n=4/group) were placed on a screen (185 mm×290 mm) with 5 mm diameter holes and the screen was slowly inverted 180 degrees until the rats were suspended upside down on the bottom of the screen. […] The rats were trained how to perform the test daily for three days before they were tested.
as §1

[4] = test system: mental nerve ligation model; experiment: Topical THC in mental nerve ligation model; assay type: in vivo, mice; details: topical THC 1% in a PLO-gel cream base
Description: FIG. 14 illustrates the effect of topical THC (1%) in a mental nerve ligation model. Neuropathic pain behavior was measured by observing total facial grooming in naïve and post-surgical mice after application of vehicle or THC.
FIG. 15 illustrates the effect of topical THC (1%) in a mental nerve ligation model. Neuropathic pain behavior was measured by observing mechanical threshold response in naïve and post-surgical mice after application of vehicle or THC.

CB1 = experiment: Immunohistochemistry of masseter ganglion neurons after NGF injection: CB1; assay type: in vivo, Sprague-Dawley rats; details: 3 days after NGF 25 μg/ml, 10 μl; saline side 52±3%; n=5 rats
Description: (§2) To identify trigeminal ganglion neurons that innervate the masseter muscle, the fluorescent tracer dye Fast Blue (2%, Polysciences, Warrington, PA) was injected bilaterally into the masseter muscles of rats (n=5),7 days prior to euthanization. NGF (25 μg/ml, 10 μI, Sigma, St. Louis, MO) or vehicle (phosphate buffered saline, PBS, 10 μI) was injected into the left and right masseter muscles, respectively, three days before euthanization. Under deep isoflurane anesthesia, animals were perfused with 120 ml cold saline followed by 120 ml of paraformaldehyde (4%). Trigeminal ganglia and masseter muscles were removed, incubated in 20% and then 40% sucrose for 48h each to cryoprotect the tissue, and cut into 10 μm sections with a cryotome. […] Fast Blue positive cells were counted and photographed for estimation of cell diameter. […]
(§3) For the immunohistochemistry experiment, the frequency of expression of CB1, CB2 and TRPV1, respectively, in trigeminal ganglion neurons between NGF and vehicle-injected sides was analyzed with a paired Student's t-test. For the behavioral and electrophysiological experiments, MT from NGF and vehicle-injected sides was analyzed with a two-way repeated measures analysis of variance (ANOVA) with time and treatment as factors. Relative mechanical activation threshold (Rel MT) was calculated as 100×Post-treatment MT/Baseline MT. […]

CB2 = experiment: Immunohistochemistry of masseter ganglion neurons after NGF injection: CB2; assay type: in vivo, Sprague-Dawley rats; details: 3 days after NGF 25 μg/ml, 10 μl; saline side 47±5%; n=5 rats
Description: as §2, §3

TRPV1 = experiment: Immunohistochemistry of masseter ganglion neurons after NGF injection: TRPV1; assay type: in vivo, Sprague-Dawley rats; details: 3 days after NGF 25 μg/ml, 10 μl; n=5 rats
Description: as §2, §3

[5] = intramuscular injection 1 mg/ml

| Molecule | Effect on NGF-induced mechanical sensitization (masseter muscle mechanical threshold, MT) ([2]; 1 mg/ml) | Impairment of motor functions in the inverted screen tests [3] | Inverted screen test median score [3] | MT of contralateral masseter muscles [2] | MT of masseter muscle mechanoreceptors [1, 5] | other results |
| --- | --- | --- | --- | --- | --- | --- |
| Cc1c(C(=O)NN2CCCCC2)nn(-c2ccc(Cl)cc2Cl)c1-c1ccc(I)cc1 [AM251, 1-(2,4-dichlorophenyl)-5-(4-iodophenyl)-4-methyl-N-1-piperidinyl-1H-pyrazole-3-carboxamide] | – | – | – | – | – | MT of masseter muscle mechanoreceptors on co-administration of THC with CB1 or CB2 antagonist [1]: attenuated the increase in MT mediated by THC alone |
| COc1ccc(C(=O)c2c(C)n(CCN3CCOCC3)c3cc(I)ccc23)cc1 [AM630, [6-iodo-2-methyl-1-[2-(4-morpholinyl)ethyl]-1H-indol-3-yl](4-methoxyphenyl)-methanone] | – | – | – | – | – | MT of masseter muscle mechanoreceptors on co-administration of THC with CB1 or CB2 antagonist [1]: not different from THC alone |
| CCCCCc1cc(O)c2c(c1)OC(C)(CCC=C(C)C)C=C2 (centres unmarked) [CBC, Cannabichromene] | No effect on MT | No impairment of motor functions | 0 | – | – | – |
| C=C(C)C1CCC(C)=CC1c1c(O)cc(CCCCC)cc1O (centres unmarked) [CBD, 2-(6-isopropenyl-3-methyl-2-cyclohexen-1-yl)-5-pentyl-1,3-benzenediol] | had no effect on NGF-induced mechanical sensitization | No impairment of motor functions | 0 | No change in mechanical threshold | not 1 mg/ml, significantly increased MT | Effect on NGF-induced mechanical sensitization (masseter muscle mechanical threshold, MT) ([2]; 5 mg/ml): significantly reversed NGF-induced sensitization at 10 and 30 min after injection; also recorded: Significant differences; MT of masseter muscle mechanoreceptors ([1]; intramuscular injection 5 mg/ml): significantly increased MT, 30 min after injection; also recorded: Significant differences |
| CCCCCc1cc(O)c2c(c1)OC(C)(C)c1ccc(C)cc1-2 [CBN, 6,6,9-trimethyl-3-pentylbenzo[c]chromen-1-ol] | significant increase in MT at 10 min after injection compared to NGF baseline; also recorded: Significant differences | No impairment of motor functions | 0 | No change in mechanical threshold | significantly increased MT at 30 and 60 min after injection; also recorded: Significant differences | Area under the curve (AUC) analysis of the electrophysiological data ([1]; AUC of MT data of FIGS. 9-12, compared to the other indicated treatments): reduction in pain response |
| CCCCCc1cc(O)c2c(c1)OC(C)(C)[C@@H]1CCC(C)=C[C@@H]21 [THC, delta-9-tetrahydrocannabinol] | significantly reversed NGF-induced sensitization at 10 and 30 min after injection; also recorded: Significant differences | No impairment of motor functions | 0 | No change in mechanical threshold | significantly increased the MT of mechanoreceptors at 10, 30 and 60 min after injection; also recorded: Significant differences | Mechanical allodynia in the lower lip skin (mechanical threshold response) [4]: reversed mechanical allodynia; Neuropathic pain behavior (facial grooming) [4]: reduced neuropathic pain behavior |
| NGF: nerve growth factor (Sigma) injected into masseter muscle to induce mechanical sensitization (protein, UniProt P01139 122-241, looked up) Beta-nerve growth factor: SSTHPVFHMGEFSVCDSVSVWVGDKTTATDIKGKEVTVLAEVNINNSVFRQYFFETKCRASNPVESGCRGIDSKHWNSYCTTTHTFVKALTTDEKQAAWRFIRIDTACVCVLSRKATRRG | – | – | – | – | – | Decrease of masseter muscle MT ([2]; 3 days after intramuscular injection of NGF 25 μg/ml, 10 μl): 31%; Frequency of expression of CB1 in masseter ganglion neurons, NGF-injected side (CB1): 39±3%; Frequency of expression of CB2 in masseter ganglion neurons, NGF-injected side (CB2): 33±6%; Effect on TRPV1 expression in masseter ganglion neurons (TRPV1): No significant effect |
